The values that follow come from US20260152533A1, “COMBINATION INHIBITORS FOR TREATING FIBROSIS” (Memorial Sloan-Kettering Cancer Center, priority 2021, published 2026).

Assay [1] has as its system pancreatic stellate cells (PSCs). The experiment in a line: Western blot of PSCs. The class given is cell-based, mouse. The note with it: PSCs, TGFβ. An excerpt:
PSCs were isolated from C57BL/6 mice by differential centrifugation as previously described^49 and their mesenchymal origin was validated by analyzing the expression of various mesenchymal and epithelial markers. MFBs were isolated from FVB/N mice by differential centrifugation as previously described^50. DB7 mouse breast cancer cells were obtained from Alexander Borowsky (University of California Davis Comprehensive Cancer Center, Sacramento, CA, USA) through an MTA to Ohio State University (OSU). KPC (Kras^LSL-G12D; Trp53^LSL-R172H; Pdx1-Cre) mouse PDAC cells were a gift from Scott Lowe (Memorial Sloan Kettering Cancer Center. (MSKCC)). All cells were cultured at 37° C. in 5% carbon dioxide (CO2) and 20% oxygen (O2) and were maintained in Dulbecco's Modified Eagles medium (DMEM) (25 mM D-glucose, 2 mM L-glutamine) supplemented with 10% fetal bovine serum (FBS) (Gemini), 100 units/ml penicillin and 100 μg/ml streptomycin. Primary PSC and MFB cells were kept in culture for no more than ten passages. Experiments with iCAFs and myCAFs were performed as previously described^29. In brief, qPSCs were generated by culturing PSCs in a dome of GFR Matrigel (Corning) in DMEM; iCAFs were generated by culturing PSCs in a dome of GFR Matrigel in DMEM conditioned by KPC cells for 48 h; myCAFs were generated by monolayer culture of PSCs. Differentiation was validated by analyzing the expression of iCAF/myCAF markers^29. […]
Lysates were generated by incubating cells or ground tumors in RIPA buffer (Millipore); […] of cleared lysate were analyzed by SDS-polyacrylamide gel electrophoresis (SDS-PAGE) as previously described^11. […] Quantification of band intensities of collagen I relative to […] or vinculin in tumor allograft experiments was performed with Image Lab software v6.0 (Bio-Rad).

For assay [2] the test system is unchanged. The assay is described as follows: Growth experiments, PSCs. The assay is classed as cell-based, mouse. The following applies: 20% Gln, TGFβ. An excerpt: NIH-3T3 cells were obtained from ATCC (CRL-1658); 293 T cells were obtained from ATCC (CRL-3216). PSCs were isolated from C57BL/6 mice by differential centrifugation as previously described^49 and their mesenchymal origin was validated by analyzing the expression of various mesenchymal and epithelial markers. MFBs were isolated from FVB/N mice by differential centrifugation as previously described^50. DB7 mouse breast cancer cells were obtained from Alexander Borowsky (University of California Davis Comprehensive Cancer Center, Sacramento, CA, USA) through an MTA to Ohio State University (OSU). KPC (Kras^LSL-G12D; Trp53^LSL-R172H; Pdx1-Cre) mouse PDAC cells were a gift from Scott Lowe (Memorial Sloan Kettering Cancer Center. (MSKCC)). […]
A total of 0.2×10^5 cells/well were plated in 24-well culture plates and media was changed and treatments started 5-6 hours later. Cell numbers at the start of treatment (day 0 “d 0”) and 1, 2 and 3 days later were counted using the Multisizer 4e (Beckman) and normalized to the cell number at d 0. In co-culture assays, a fraction of the cell population was analyzed by flow cytometry for GFP expression, and the rest counted with the Multisizer 4e. The number of KPC-GFP cells was determined by multiplying the fraction of GFP+ cells with the total number of cells.

As for “TGFβ: transforming growth-factor beta; TGFβ-1 purchased from Peprotech”, the “collagen I production” value in assay [1] (20% Gln, 48 hours) was “unable to proliferate and produce collagen I”. The GCN2 phosphorylation entry in assay [1] (low Gln (20%), 48 hours (FIG. 8J)) is “showed GCN2 phosphorylation”. The cell proliferation entry in assay [2] is “unable to proliferate”.
